From ChEMBL document CHEMBL1201862, “PubChem BioAssay data set” (2004)
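These data come from cells grown in 96-well plates and exposed to compound for 48 hours at five concentrations. GI50: concentration for 50% inhibition of growth.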 The source made the active and inactive calls. Rule as the data show it: active = GI50 up to about 1.1 µM and inactive = higher.

Columns and labels:
Assay in all cases: growth of human tumour cells (NCI), 48 h
COLO 205 = tested on: COLO 205
SK-MEL-5 = tested on: SK-MEL-5
KM-20L2 = tested on: KM-20L2
SR = tested on: SR
DLD-1 = tested on: DLD-1
SNB-75 = tested on: SNB-75
HCT-116 = tested on: HCT-116
OVCAR-5 = tested on: OVCAR-5
RXF 631 = tested on: RXF 631
HCT-15 = tested on: HCT-15
RPMI-8226 = tested on: RPMI-8226
UACC-257 = tested on: UACC-257
IGROV-1 = tested on: IGROV-1
DMS-114 = tested on: DMS-114
HOP-62 = tested on: HOP-62
HT-29 = tested on: HT-29
Malme-3M = tested on: Malme-3M
NCI-H460 = tested on: NCI-H460
SF-268 = tested on: SF-268
HL-60 = tested on: HL-60
OVCAR-8 = tested on: OVCAR-8
OVCAR-4 = tested on: OVCAR-4
A549 = tested on: A549
K562 = tested on: K562
CAKI-1 = tested on: CAKI-1
TK-10 = tested on: TK-10
SF-539 = tested on: SF-539
SNB-19 = tested on: SNB-19
KM12 = tested on: KM12
HOP-92 = tested on: HOP-92
786-0 = tested on: 786-0
SK-MEL-28 = tested on: SK-MEL-28
RXF 393 = tested on: RXF 393
UACC-62 = tested on: UACC-62
XF498 = tested on: XF498
SF-295 = tested on: SF-295
DMS-273 = tested on: DMS-273
CCRF-CEM = tested on: CCRF-CEM
M19-MEL = tested on: M19-MEL
SN12C = tested on: SN12C
SK-OV-3 = tested on: SK-OV-3
U-251 = tested on: U-251
HCC 2998 = tested on: HCC 2998
MOLT-4 = tested on: MOLT-4
A498 = tested on: A498
UO-31 = tested on: UO-31
NCI-H23 = tested on: NCI-H23
NCI-H226 = tested on: NCI-H226
OVCAR-3 = tested on: OVCAR-3
ACHN = tested on: ACHN
SK-MEL-2 = tested on: SK-MEL-2
M14 = tested on: M14
LXFL 529 = tested on: LXFL 529
NCI-H522 = tested on: NCI-H522
SNB-78 = tested on: SNB-78
SW-620 = tested on: SW-620
LOX IMVI = tested on: LOX IMVI
EKVX = tested on: EKVX

## CS(=O)(=O)OCCN1CCN(C(=O)c2ccc(Cl)c3c(Nc4ccc(S(=O)(=O)N=C(N)N)cc4)c4ccccc4nc23)CC1
COLO 205
  GI50: > 100 µM (inactive)
SK-MEL-5
  GI50: > 100 µM (inactive)
KM-20L2
  GI50: > 100 µM (inactive)
SR
  GI50: > 100 µM (inactive)
DLD-1
  GI50: > 100 µM (inactive)
SNB-75
  GI50: > 100 µM (inactive)
HCT-116
  GI50: > 100 µM (inactive)
OVCAR-5
  GI50: > 100 µM (inactive)
RXF 631
  GI50: > 100 µM (inactive)
HCT-15
  GI50: > 100 µM
RPMI-8226
  GI50: > 100 µM (inactive)
UACC-257
  GI50: > 100 µM (inactive)
IGROV-1
  GI50: > 100 µM (inactive)
DMS-114
  GI50: > 100 µM (inactive)
HOP-62
  GI50: > 100 µM (inactive)
HT-29
  GI50: > 100 µM (inactive)
Malme-3M
  GI50: > 100 µM (inactive)
NCI-H460
  GI50: > 100 µM (inactive)
SF-268
  GI50: > 100 µM (inactive)
HL-60
  GI50: > 100 µM (inactive)
OVCAR-8
  GI50: > 100 µM (inactive)
OVCAR-4
  GI50: > 100 µM (inactive)
A549
  GI50: > 100 µM (inactive)
K562
  GI50: > 100 µM (inactive)
CAKI-1
  GI50: > 100 µM (inactive)
TK-10
  GI50: > 100 µM (inactive)
SF-539
  GI50: > 100 µM (inactive)
SNB-19
  GI50: > 100 µM (inactive)
KM12
  GI50: > 100 µM (inactive)
HOP-92
  GI50: > 100 µM (inactive)
786-0
  GI50: > 100 µM (inactive)
SK-MEL-28
  GI50: > 100 µM (inactive)
RXF 393
  GI50: > 100 µM (inactive)
UACC-62
  GI50: > 100 µM (inactive)
XF498
  GI50: > 100 µM (inactive)
SF-295
  GI50: > 100 µM (inactive)
DMS-273
  GI50: > 100 µM (inactive)
CCRF-CEM
  GI50: > 100 µM (inactive)
M19-MEL
  GI50: > 100 µM (inactive)
SN12C
  GI50: > 100 µM (inactive)
SK-OV-3
  GI50: > 100 µM (inactive)
U-251
  GI50: > 100 µM (inactive)
HCC 2998
  GI50: > 100 µM (inactive)
MOLT-4
  GI50: > 100 µM (inactive)
A498
  GI50: > 100 µM (inactive)
UO-31
  GI50: > 100 µM (inactive)
NCI-H23
  GI50: > 100 µM (inactive)
NCI-H226
  GI50: > 100 µM (inactive)
OVCAR-3
  GI50: > 100 µM (inactive)
ACHN
  GI50: > 100 µM (inactive)
SK-MEL-2
  GI50: > 100 µM (inactive)
M14
  GI50: > 100 µM (inactive)

## COc1ccc2c(CCNC(=O)/C=C/c3ccccc3)c(C(C)=O)[nH]c2c1[N+](=O)[O-]
LXFL 529
  GI50: 10 µM (inactive)
COLO 205
  GI50: 8.85 µM (inactive)
KM-20L2
  GI50: 19.1 µM (inactive)
SR
  GI50: 7.28 µM (inactive)
HCT-116
  GI50: 13.7 µM (inactive)
NCI-H522
  GI50: 3.35 µM (inactive)
OVCAR-5
  GI50: > 10 µM (inactive)
RXF 631
  GI50: 13.2 µM (inactive)
SNB-78
  GI50: 40.2 µM (inactive)
HCT-15
  GI50: 6.89 µM
RPMI-8226
  GI50: 5.98 µM (inactive)
UACC-257
  GI50: 8.95 µM (inactive)
IGROV-1
  GI50: 18.3 µM (inactive)
DMS-114
  GI50: 13.6 µM (inactive)
HOP-62
  GI50: 18.8 µM (inactive)
HT-29
  GI50: 4.99 µM (inactive)
NCI-H460
  GI50: 6.12 µM (inactive)
SF-268
  GI50: 4.26 µM (inactive)
HL-60
  GI50: 4.31 µM (inactive)
OVCAR-8
  GI50: 17.9 µM (inactive)
OVCAR-4
  GI50: 21.8 µM (inactive)
A549
  GI50: 8.05 µM (inactive)
K562
  GI50: 4.49 µM (inactive)
CAKI-1
  GI50: 5.28 µM (inactive)
SF-539
  GI50: 9.86 µM (inactive)
SNB-19
  GI50: 48.6 µM (inactive)
KM12
  GI50: 7.73 µM (inactive)
786-0
  GI50: 20.3 µM (inactive)
SK-MEL-28
  GI50: 14.5 µM (inactive)
SW-620
  GI50: 5.38 µM (inactive)
UACC-62
  GI50: 10.2 µM (inactive)
SF-295
  GI50: 3.87 µM (inactive)
DMS-273
  GI50: 5.64 µM (inactive)
CCRF-CEM
  GI50: 5.35 µM (inactive)
SN12C
  GI50: 42.4 µM (inactive)
U-251
  GI50: 34.2 µM (inactive)
HCC 2998
  GI50: 20 µM (inactive)
MOLT-4
  GI50: 5.69 µM (inactive)
LOX IMVI
  GI50: 5.64 µM (inactive)
A498
  GI50: 17.3 µM (inactive)
UO-31
  GI50: 31.3 µM (inactive)
NCI-H23
  GI50: 3.78 µM (inactive)
NCI-H226
  GI50: 20.9 µM (inactive)
OVCAR-3
  GI50: 10.1 µM (inactive)
ACHN
  GI50: 50.4 µM (inactive)
SK-MEL-2
  GI50: 17.4 µM (inactive)
M14
  GI50: 7.33 µM (inactive)

## O=C1c2ccccc2C(=O)c2c(O)c(O)cc(O)c21 [PURPURIN]
LXFL 529
  GI50: 37.2 µM (inactive)
COLO 205
  GI50: 34 µM (inactive)
SK-MEL-5
  GI50: 37.9 µM (inactive)
DLD-1
  GI50: 31.5 µM (inactive)
SNB-75
  GI50: 85.9 µM (inactive)
HCT-116
  GI50: 24.5 µM (inactive)
NCI-H522
  GI50: 33.6 µM (inactive)
OVCAR-5
  GI50: 80.7 µM (inactive)
RXF 631
  GI50: 39.4 µM (inactive)
SNB-78
  GI50: 38.2 µM (inactive)
HCT-15
  GI50: 36.5 µM
RPMI-8226
  GI50: 25.8 µM (inactive)
UACC-257
  GI50: 49.4 µM (inactive)
IGROV-1
  GI50: 31.6 µM (inactive)
HOP-62
  GI50: 23.7 µM (inactive)
Malme-3M
  GI50: 32.7 µM (inactive)
NCI-H460
  GI50: 34.5 µM (inactive)
SF-268
  GI50: 42.4 µM (inactive)
HL-60
  GI50: 24 µM (inactive)
OVCAR-8
  GI50: 55.5 µM (inactive)
OVCAR-4
  GI50: 41 µM (inactive)
A549
  GI50: 44.7 µM (inactive)
K562
  GI50: 36.5 µM (inactive)
CAKI-1
  GI50: 44 µM (inactive)
EKVX
  GI50: 50.9 µM (inactive)
TK-10
  GI50: 81.3 µM (inactive)
SF-539
  GI50: 17.8 µM (inactive)
SNB-19
  GI50: 34.1 µM (inactive)
KM12
  GI50: 41.5 µM (inactive)
HOP-92
  GI50: 25.2 µM (inactive)
786-0
  GI50: 25.8 µM (inactive)
SK-MEL-28
  GI50: 38.6 µM (inactive)
RXF 393
  GI50: 21.7 µM (inactive)
SW-620
  GI50: 40.1 µM (inactive)
UACC-62
  GI50: 26.1 µM (inactive)
XF498
  GI50: 22.9 µM (inactive)
SF-295
  GI50: 51.6 µM (inactive)
DMS-273
  GI50: 38.1 µM (inactive)
CCRF-CEM
  GI50: 35 µM (inactive)
M19-MEL
  GI50: 36.7 µM (inactive)
SN12C
  GI50: 34.7 µM (inactive)
SK-OV-3
  GI50: 31.8 µM (inactive)
U-251
  GI50: 35.6 µM (inactive)
HCC 2998
  GI50: 32.7 µM (inactive)
MOLT-4
  GI50: 34 µM (inactive)
LOX IMVI
  GI50: 43.7 µM (inactive)
A498
  GI50: 31 µM (inactive)
UO-31
  GI50: 19 µM (inactive)
NCI-H23
  GI50: 29.9 µM (inactive)
OVCAR-3
  GI50: 22.4 µM (inactive)
ACHN
  GI50: 27.4 µM (inactive)
SK-MEL-2
  GI50: 21.2 µM (inactive)
M14
  GI50: 41.3 µM (inactive)
